# PubChem BioAssay (NCI)
#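 Step 1: Grow cells in 96-well plates. Step 2: Expose to compound for 48 hours at 5 concentrations. Step 3: Interpolate endpoints linearly; if unreached, use highest concentration. At the GI50, growth is halved. TGI: concentration producing complete growth inhibition.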
# How the values were obtained:
# Experiment in all cases: growth of human tumour cells (NCI), 48 h
# 786-0 renal = test system: 786-0 renal
# A498 renal = test system: A498 renal
# CCRF-CEM leukemia = test system: CCRF-CEM leukemia
# COLO 205 colon = test system: COLO 205 colon
# HCC-2998 colon = test system: HCC-2998 colon
# HCT-116 colon = test system: HCT-116 colon
# HL-60(TB) leukemia = test system: HL-60(TB) leukemia
# HOP-92 NSCLC = test system: HOP-92 NSCLC
# K-562 leukemia = test system: K-562 leukemia
# LOX IMVI melanoma = test system: LOX IMVI melanoma
# M14 melanoma = test system: M14 melanoma
# MALME-3M melanoma = test system: MALME-3M melanoma
# MCF7 breast = test system: MCF7 breast
# MDA-MB-231 breast = test system: MDA-MB-231 breast
# MDA-MB-435 = test system: MDA-MB-435
# MOLT-4 leukemia = test system: MOLT-4 leukemia
# NCI-H460 lung = test system: NCI-H460 lung
# NCI-H522 lung = test system: NCI-H522 lung
# NCI/ADR-RES ovarian = test system: NCI/ADR-RES ovarian
# RPMI-8226 leukemia = test system: RPMI-8226 leukemia
# RXF 393 renal = test system: RXF 393 renal
# SF-539 CNS = test system: SF-539 CNS
# SK-MEL-2 melanoma = test system: SK-MEL-2 melanoma
# SK-MEL-28 melanoma = test system: SK-MEL-28 melanoma
# SK-MEL-5 melanoma = test system: SK-MEL-5 melanoma
# SNB-75 CNS = test system: SNB-75 CNS
# SR leukemia = test system: SR leukemia
# SW-620 colon = test system: SW-620 colon
# TK-10 renal = test system: TK-10 renal
# U251 CNS = test system: U251 CNS
# UACC-257 melanoma = test system: UACC-257 melanoma
# UACC-62 melanoma = test system: UACC-62 melanoma
# UO-31 renal = test system: UO-31 renal
compound,measurement,setting,value
CC1COc2c(N3CCN(C)CC3)c(F)cc3c(=O)c(C(=O)N/N=C/c4cc[nH]c4)cn1c23 (stereo unspecified),GI50,786-0 renal,1420 nM
same,TGI,786-0 renal,2850 nM
same,GI50,A498 renal,2220 nM
same,TGI,A498 renal,> 100000 nM
same,GI50,CCRF-CEM leukemia,959 nM
same,TGI,CCRF-CEM leukemia,2790 nM
same,GI50,COLO 205 colon,1270 nM
same,TGI,COLO 205 colon,2600 nM
same,GI50,HCC-2998 colon,518 nM
same,TGI,HCC-2998 colon,1890 nM
same,GI50,HCT-116 colon,712 nM
same,TGI,HCT-116 colon,2000 nM
same,GI50,HL-60(TB) leukemia,674 nM
same,TGI,HL-60(TB) leukemia,2590 nM
same,GI50,HOP-92 NSCLC,497 nM
same,TGI,HOP-92 NSCLC,36000 nM
same,GI50,K-562 leukemia,699 nM
same,TGI,K-562 leukemia,2350 nM
same,GI50,LOX IMVI melanoma,715 nM
same,TGI,LOX IMVI melanoma,2070 nM
same,GI50,M14 melanoma,1670 nM
same,TGI,M14 melanoma,3120 nM
same,GI50,MALME-3M melanoma,1040 nM
same,TGI,MALME-3M melanoma,2570 nM
same,GI50,MCF7 breast,417 nM
same,TGI,MCF7 breast,1650 nM
same,GI50,MDA-MB-231 breast,1480 nM
same,TGI,MDA-MB-231 breast,3000 nM
same,GI50,MDA-MB-435,1520 nM
same,TGI,MDA-MB-435,2910 nM
same,GI50,MOLT-4 leukemia,502 nM
same,TGI,MOLT-4 leukemia,2100 nM
same,GI50,NCI-H460 lung,767 nM
same,TGI,NCI-H460 lung,2080 nM
same,GI50,NCI-H522 lung,1240 nM
same,TGI,NCI-H522 lung,2640 nM
same,GI50,NCI/ADR-RES ovarian,> 100000 nM
same,TGI,NCI/ADR-RES ovarian,> 100000 nM
same,GI50,RPMI-8226 leukemia,2190 nM
same,TGI,RPMI-8226 leukemia,4580 nM
same,GI50,RXF 393 renal,1060 nM
same,TGI,RXF 393 renal,2350 nM
same,GI50,SF-539 CNS,1280 nM
same,TGI,SF-539 CNS,2610 nM
same,GI50,SK-MEL-2 melanoma,1570 nM
same,TGI,SK-MEL-2 melanoma,3010 nM
same,GI50,SK-MEL-28 melanoma,1470 nM
same,TGI,SK-MEL-28 melanoma,2830 nM
same,GI50,SK-MEL-5 melanoma,1400 nM
same,TGI,SK-MEL-5 melanoma,2710 nM
same,GI50,SNB-75 CNS,1480 nM
same,TGI,SNB-75 CNS,3470 nM
same,GI50,SR leukemia,841 nM
same,TGI,SR leukemia,3160 nM
same,GI50,SW-620 colon,1300 nM
same,TGI,SW-620 colon,2620 nM
same,GI50,TK-10 renal,5400 nM
same,TGI,TK-10 renal,96100 nM
same,GI50,U251 CNS,614 nM
same,TGI,U251 CNS,1980 nM
same,GI50,UACC-257 melanoma,1640 nM
same,TGI,UACC-257 melanoma,3120 nM
same,GI50,UACC-62 melanoma,1700 nM
same,TGI,UACC-62 melanoma,3160 nM
same,GI50,UO-31 renal,2710 nM
same,TGI,UO-31 renal,> 100000 nM
